Experiments:
Format in all cases: functional
[1] = system: NCI-H522; assay: Growth inhibition of human NCI-H522 cells assessed as cell growth at 10^-6 M incubated for 48 hrs by sulforhodamine B assay relative to control; settings: NCI-H522, 48 h, read-out: Activity
[2] = system: HL-60(TB); assay: Growth inhibition of human HL-60(TB) cells assessed as cell growth at 10^-5 M incubated for 48 hrs by sulforhodamine B assay relative to control; settings: HL-60, 48 h, read-out: Activity
[3] = system: HT-29; assay: Growth inhibition of human HT-29 cells assessed as cell growth at 10^-5 M incubated for 48 hrs by sulforhodamine B assay relative to control; settings: HT-29, 48 h, read-out: Activity
[4] = system: RXF 393; assay: Growth inhibition of human RXF393 cells assessed as cell growth at 10^-4 M incubated for 48 hrs by sulforhodamine B assay relative to control; settings: RXF 393, 48 h, read-out: Activity
[5] = system: Malme-3M; assay: Growth inhibition of human MALME-3M cells assessed as cell growth at 10^-7 M incubated for 48 hrs by sulforhodamine B assay relative to control; settings: read-out: Activity
[6] = system: NCI-H23; assay: Growth inhibition of human NCI-H23 cells assessed as cell growth at 10^-7 M incubated for 48 hrs by sulforhodamine B assay relative to control; settings: NCI-H23, 48 h, read-out: Activity
[7] = system: MCF7; assay: Growth inhibition of human MCF7 cells assessed as cell growth at 10^-7 M incubated for 48 hrs by sulforhodamine B assay relative to control; settings: MCF7, 48 h, read-out: Activity
[8] = system: SK-MEL-2; assay: Growth inhibition of human SK-MEL-2 cells assessed as cell growth at 10^-7 M incubated for 48 hrs by sulforhodamine B assay relative to control; settings: SK-MEL-2, 48 h, read-out: Activity
[9] = system: ACHN; assay: Growth inhibition of human ACHN cells assessed as cell growth at 10^-4 M incubated for 48 hrs by sulforhodamine B assay relative to control; settings: read-out: Activity
[10] = system: CAKI-1; assay: Growth inhibition of human Caki1 cells assessed as cell growth at 10^-6 M incubated for 48 hrs by sulforhodamine B assay relative to control; settings: CAKI-1, 48 h, read-out: Activity
[11] = system: NCI-H522; assay: Growth inhibition of human NCI-H522 cells assessed as cell growth at 10^-8 M incubated for 48 hrs by sulforhodamine B assay relative to control; settings: NCI-H522, 48 h, read-out: Activity
[12] = system: MDA-MB-231; assay: Growth inhibition of human MDA-MB-231 cells assessed as cell growth at 10^-7 M incubated for 48 hrs by sulforhodamine B assay relative to control; settings: MDA-MB-231, 48 h, read-out: Activity
[13] = system: HCT-116; assay: Growth inhibition of human HCT116 cells assessed as cell growth at 10^-6 M incubated for 48 hrs by sulforhodamine B assay relative to control; settings: HCT-116, 48 h, read-out: Activity
[14] = system: RPMI-8226; assay: Growth inhibition of human RPMI8226 cells assessed as cell growth at 10^-4 M incubated for 48 hrs by sulforhodamine B assay relative to control; settings: RPMI-8226, 48 h, read-out: Activity
[15] = system: HCC 2998; assay: Growth inhibition of human HCC2998 cells assessed as cell growth at 10^-8 M incubated for 48 hrs by sulforhodamine B assay relative to control; settings: HCC 2998, 48 h, read-out: Activity
[16] = system: NCI/ADR-RES; assay: Growth inhibition of human NCI/ADR-RES cells assessed as cell growth at 10^-5 M incubated for 48 hrs by sulforhodamine B assay relative to control; settings: read-out: Activity
[17] = system: 786-0; assay: Growth inhibition of human 786-0 cells assessed as cell growth at 10^-8 M incubated for 48 hrs by sulforhodamine B assay relative to control; settings: 786-0, 48 h, read-out: Activity
[18] = system: SF-539; assay: Growth inhibition of human SF539 cells assessed as cell growth at 10^-4 M incubated for 48 hrs by sulforhodamine B assay relative to control; settings: SF-539, 48 h, read-out: Activity
[19] = system: HOP-62; assay: Growth inhibition of human HOP62 cells assessed as cell growth at 10^-4 M incubated for 48 hrs by sulforhodamine B assay relative to control; settings: HOP-62, 48 h, read-out: Activity
[20] = system: SNB-75; assay: Growth inhibition of human SNB75 cells assessed as cell growth at 10^-5 M incubated for 48 hrs by sulforhodamine B assay relative to control; settings: SNB-75, 48 h, read-out: Activity
[21] = system: SF-268; assay: Growth inhibition of human SF268 cells assessed as cell growth at 10^-7 M incubated for 48 hrs by sulforhodamine B assay relative to control; settings: SF-268, 48 h, read-out: Activity
[22] = system: SW-620; assay: Growth inhibition of human SW620 cells assessed as cell growth at 10^-7 M incubated for 48 hrs by sulforhodamine B assay relative to control; settings: SW-620, 48 h, read-out: Activity
[23] = system: OVCAR-4; assay: Growth inhibition of human OVCAR4 cells assessed as cell growth at 10^-8 M incubated for 48 hrs by sulforhodamine B assay relative to control; settings: OVCAR-4, 48 h, read-out: Activity
[24] = system: 786-0; assay: Growth inhibition of human 786-0 cells assessed as cell growth at 10^-7 M incubated for 48 hrs by sulforhodamine B assay relative to control; settings: 786-0, 48 h, read-out: Activity
[25] = system: RPMI-8226; assay: Growth inhibition of human RPMI8226 cells assessed as cell growth at 10^-8 M incubated for 48 hrs by sulforhodamine B assay relative to control; settings: RPMI-8226, 48 h, read-out: Activity
[26] = system: NCI-H322M; assay: Growth inhibition of human NCI-H322M cells assessed as cell growth at 10^-8 M incubated for 48 hrs by sulforhodamine B assay relative to control; settings: read-out: Activity
[27] = system: KM12; assay: Growth inhibition of human KM12 cells assessed as cell growth at 10^-8 M incubated for 48 hrs by sulforhodamine B assay relative to control; settings: KM12, 48 h, read-out: Activity
[28] = system: OVCAR-4; assay: Growth inhibition of human OVCAR4 cells assessed as cell growth at 10^-6 M incubated for 48 hrs by sulforhodamine B assay relative to control; settings: OVCAR-4, 48 h, read-out: Activity
[29] = system: DU-145; assay: Growth inhibition of human DU145 cells assessed as cell growth at 10^-7 M incubated for 48 hrs by sulforhodamine B assay relative to control; settings: DU-145, 48 h, read-out: Activity
[30] = system: HOP-62; assay: Growth inhibition of human HOP62 cells assessed as cell growth at 10^-7 M incubated for 48 hrs by sulforhodamine B assay relative to control; settings: HOP-62, 48 h, read-out: Activity
[31] = system: MDA-MB-231; assay: Growth inhibition of human MDA-MB-231 cells assessed as cell growth at 10^-6 M incubated for 48 hrs by sulforhodamine B assay relative to control; settings: MDA-MB-231, 48 h, read-out: Activity
[32] = system: MDA-MB-435; assay: Growth inhibition of human MDA-MB-435 cells assessed as cell growth at 10^-6 M incubated for 48 hrs by sulforhodamine B assay relative to control; settings: MDA-MB-435, 48 h, read-out: Activity
[33] = system: SN12C; assay: Growth inhibition of human SN12C cells assessed as cell growth at 10^-5 M incubated for 48 hrs by sulforhodamine B assay relative to control; settings: read-out: Activity

## CCCCOc1nc2ccccc2cc1C1CNC(=O)c2ccccc2N1 (stereo not drawn)
[1]
  growth at 1 µM: 65%
[2]
  growth at 10 µM: -28%
[3]
  growth at 10 µM: 3%
[4]
  growth at 100 µM: -58%
[5]
  growth at 0.1 µM: 92%
[6]
  growth at 0.1 µM: 95%
[7]
  growth at 0.1 µM: 91%
[8]
  growth at 0.1 µM: 99%
[9]
  growth at 100 µM: -71%
[10]
  growth at 1 µM: 70%
[11]
  growth at 0.01 µM: 90%
[12]
  growth at 0.1 µM: 96%
[13]
  growth at 1 µM: 75%
[14]
  growth at 100 µM: -14%
[15]
  growth at 0.01 µM: 99%
[16]
  growth at 10 µM: -15%
[17]
  growth at 0.01 µM: 99%
[18]
  growth at 100 µM: -70%
[19]
  growth at 100 µM: -59%
[20]
  growth at 10 µM: 13%
[21]
  growth at 0.1 µM: 92%
[22]
  growth at 0.1 µM: 96%
[23]
  growth at 0.01 µM: 92%
[24]
  growth at 0.1 µM: 100%
[25]
  growth at 0.01 µM: 95%
[26]
  growth at 0.01 µM: 94%
[27]
  growth at 0.01 µM: 98%
[28]
  growth at 1 µM: 85%
[29]
  growth at 0.1 µM: 101%
[30]
  growth at 0.1 µM: 98%
[31]
  growth at 1 µM: 85%
[32]
  growth at 1 µM: 8%
[33]
  growth at 10 µM: 19%

Source: ChEMBL document CHEMBL4138146, “A Schmidt rearrangement-mediated synthesis of novel tetrahydro-benzo[1,4]diazepin-5-ones as potential anticancer and antiprotozoal agents” (Eur J Med Chem, 2017)
